Data on 2 compounds can be found in patent US20120157521A1, “TREATMENT OF MACULAR DEGENERATION” (Bonomics Limited, priority 2009, published 2012).

In one assay the test system is tubulin. Put plainly: Tubulin polymerisation assay. The format is biochemical. The method, then:
Tubulin Polymerisation Assay: Tubulin polymerisation inhibition assays were performed using a fluorescent-based detection kit (#BK011, Cytoskeleton) according to the instructions of the manufacturer. The test compound was added to a 2 mg/ml tubulin solution containing 20% glycerol and 1 mM GTP in 1× Buffer 1 (Buffer 1: 80 mM Piperazine-N,N′-bis[2-ethanesulfonic acid]sequisodium salt; 2 mM magnesium chloride; 0.5 mM Ethylene glycol-bis(b-amino-ethyl ether)N,N,N′,N′-tetra-acetic acid, pH 6.9, 10 uM fluorescent reporter). Fluorescence was measured over a period of 42 minutes at 1 minute intervals. Increased fluorescence indicates increase in tubulin polymerisation. There is a ten-fold increase in the affinity of the fluorescent reporter for polymerised tubulin compared to monomeric tubulin subunits. The result is a fluorescence signal that closely follows tubulin polymerisation.

Assay [1] relates to quiescent human umbilical vein endothelial cells (HUVEC). Put plainly: Proliferation assay - quiescent endothelium (MTT), HUVEC. It counts as cell-based. Conditions: 48 hrs. The method, then:
Proliferation Assay—quiescent endothelium: Human umbilical vein endothelial cells (CC-2519, Clonetics) were plated at 15000 cells/well in EBM2 (CC-3156, Clonetics)+0.5% FBS (CC-4101A, Clonetics)+GA-1000 (CC-4381A, Clonetics) in a 96 well plate in triplicate. Cells were cultured overnight at 37° C. 5% CO2. Medium was subsequently replaced with fresh medium including the compound or negative control. Cells were cultured for a period of 48 hrs. An MTT assay was performed to measure changes in cell numbers. Briefly, 20 μl of MTT reagent was added to cells containing 100 μl of EBM2+0.5% FBS and incubated at 37° C. for 2 hours. Absorbance was measured at 492 nm.

Assay [2] relates to stable pre-formed HUVEC capillary tubes. Put plainly: Disruptive activity on stable pre-formed capillary tubes on Matrigel. The note with it: 5 hrs after compound, at concentrations that inhibit capillary formation.
In assay [3] the test system is quiescent human abdominal aorta endothelial cells (HAAEC). The assay can be described thus: Proliferation assay - quiescent endothelium, HAAEC. The note with it: Endothelial cell, read-out: Quiescent EC50.
The subject of assay [4] is HUVEC cells under activated cell conditions. The assay can be described thus: Disruption of endothelial cell cytoskeleton (actin staining). It counts as cell-based, human. The note with it: 10 nM, 20 minutes, actin stain. The method, then: FIG. 7 depicts disruption of endothelial cell cytoskeleton by compound Example 2. Endothelial cells were cultured in the presence of 10 nM compound Example 2 or DMSO control, and after 20 mins washed, fixed and stained with actin.
HUVEC cells were cultured under “activated” cell conditions in the presence of 10 nM compound Example 2 or DMSO control (using HUVEC cells). After 20 minutes cells were washed, fixed and stained for actin. […] A bleb is defined as an irregular bulge in the plasma membrane of a cell caused by localized decoupling of the cytoskeleton from the plasma membrane. Blebbing is the term used to describe the formation of blebs.

The test system of assay [5] is HUVEC endothelial cell capillary formation. Put plainly: Endothelial cell capillary formation on Matrigel. The note with it: HUVEC, 25,000/well, 96-well plates, 22 hrs.
Method: DMSO vehicle was included in the analysis as a negative control. Cells were plated at 25,000/well in 96-well plates and cultured for 22 hrs.
DMSO vehicle (C, F) was included in the analysis as a negative control. Cells were plated at 25,000/well in 96-well plates and cultured for 22 hrs.

In the case of `COc1cc(C(=O)c2c(C)oc3c(O)c(OC)ccc23)cc(OC)c1OC` [Example 1, 2-Methyl-7-hydroxy-3-(3,4,5-trimethoxybenzoyl)-6-methoxybenzofuran], in the assay with tubulin, the “Tubulin polymerisation inhibition (in words)” value was “potent tubulin polymerisation inhibitor”.

As to `COc1cc(C(=O)c2c(C)oc3c(OP(=O)([O-])[O-])c(OC)ccc23)cc(OC)c1OC.[Na+].[Na+]` [Example 2, Disodium 6-methoxy-2-methyl-3-(3,4,5-trimethoxybenzoyl)benzofuran-7-yl phosphate], the EC50 in assay [1] turned out to be 23.3 nM; in assay [3], 12.5 nM. Moreover, in assay [2], the “Disruption of stable pre-formed capillaries” value is recorded as “does not disrupt stable pre-formed capillaries”. Besides, the “Disruption of endothelial cell cytoskeleton (blebbing)” value in assay [4] is “clear evidence of “blebbing””. The “Effect on capillary formation on Matrigel” value in assay [5] was “inhibited”.

Usually EC50 stands for the midpoint of the concentration-response curve.
